Holding throughout (type): cell-based
Experiment [1] has as its system HIV-1 NL4-3 pseudovirus (WT). Particulars: Table 3; for Fold change in IC50: WT NL4-3 reference; for IC50: WT NL4-3, TZM-bl cells, 48 h, luciferase, means, triplicate, repeated three times. As to the method:
(§1) The infectivity of HIV Env mutants and the inhibitory activities of membrane fusion inhibitors on mutants in TZM-bl cells were measured using a single-cycle infection assay as described previously. Briefly, the HIV pseudovirus was packed using an Env-coding plasmid, and pSG3ΔEnv was co-transfected into HEK293T cells. pSG3ΔEnv encodes an Env-defective, luciferase-expressing HIV-1 genome. After the pseudoviruses were harvested and filtrated, the amount of pseudoviruses was fixed via P24 antigen, and their infectivity was determined in TZM-bl cells. In order to measure the inhibitory activities of the inhibitors, inhibitors diluted serially 3-fold were mixed with an equal volume of pseudoviruses, and then 100 µL 1 × 10^5/mL TZM-bl cells were added to the mixture and incubated at 37 °C with 5% CO2 for 48 h. After that, TZM-bl cells were lysed using reporter lysis buffer, and IC50 values were calculated according to luciferase activity measured by luciferase assay reagents and a luminescence counter (Promega, Madison, WI, USA).

The test system of experiment [2] is HIV-1 NL4-3 gp41 I37T pseudovirus. Particulars: Table 3; for Fold change in IC50: I37T relative to WT NL4-3; for IC50: I37T, TZM-bl cells, 48 h, luciferase, means, triplicate, repeated three times. The procedure: (§2) Viral RNA was extracted from the supernatant, and, after reverse transcription, the cDNA was amplified using PCR. These amplified DNA were connected to the T-Easy vector and transformed to Trans 2-Blue Chemically Competent Cells. These sequences were determined via sequencing. The expression plasmids, which contained different HIV-1NL4-3 Env mutants, were constructed using DNA assembly (NEBuilder® HiFi DNA Assembly Master Mix). In brief, two primers were used to amplify Env, and the other two primers were used to amplify the vector fragment. The products of PCR were purified with a 20–25 bp overlap in the terminal of Env and the vector fragment Env and the vector fragment were added to the DNA assembly master mix at […] for 15 min and then transformed to Trans 2-Blue Chemically Competent Cells. Additionally, a single-point mutation was generated using double-stranded DNA templates and a selection of mutants with a restriction enzyme (DpnI) as described previously.
as §1

The test system of experiment [3] is HIV-1 NL4-3 gp41 I69V pseudovirus. Conditions: Table 3; for Fold change in IC50: I69V relative to WT NL4-3; for IC50: I69V, TZM-bl cells, 48 h, luciferase, means, triplicate, repeated three times. As to the method:
as §2, §1

For experiment [4], the system named is HIV-1 NL4-3 gp41 L33S pseudovirus. Particulars: Table 3; for Fold change in IC50: L33S relative to WT NL4-3; for IC50: L33S, TZM-bl cells, 48 h, luciferase, means, triplicate, repeated three times. As to the method:
as §2, §1

Experiment [5] concerns HIV-1 NL4-3 gp41 L33S/I37T pseudovirus. Conditions: Table 3; for Fold change in IC50: L33S/I37T relative to WT NL4-3; for IC50: L33S/I37T, TZM-bl cells, 48 h, luciferase, means, triplicate, repeated three times. The procedure: (§3) We selected LP-40-induced drug resistance typical point mutations and combination mutation pseudoviruses to evaluate the current representative membrane fusion inhibitors.
as §1

Experiment [6] relates to HIV-1 NL4-3 gp41 L33S/V38A/N42T pseudovirus. Particulars: Table 3; for Fold change in IC50: L33S/V38A/N42T relative to WT NL4-3; for IC50: L33S/V38A/N42T, TZM-bl cells, 48 h, luciferase, means, triplicate, repeated three times. As to the method: as §3, §1
In experiment [7] the test system is HIV-1 NL4-3 gp41 NDQEEDYN pseudovirus. Conditions: Table 3; for Fold change in IC50: NDQEEDYN relative to WT NL4-3; for IC50: NDQEEDYN (E109N, N113D, E119Q, D121E, N125E, S129D, H132Y, S133N), TZM-bl cells, 48 h, luciferase, means, triplicate, repeated three times. As to the method: as §3, §1
Experiment [8] has as its system HIV-1 NL4-3 gp41 NDQEEDYN/L33S/I37T pseudovirus. Particulars: Table 3; for Fold change in IC50: NDQEEDYN/L33S/I37T relative to WT NL4-3; for IC50: NDQEEDYN/L33S/I37T, TZM-bl cells, 48 h, luciferase, means, triplicate, repeated three times. The procedure: as §3, §1
Experiment [9] concerns HIV-1 NL4-3 gp41 NDQEEDYN/L33S/V38A/N42T pseudovirus. Particulars: Table 3; for Fold change in IC50: NDQEEDYN/L33S/V38A/N42T relative to WT NL4-3; for IC50: NDQEEDYN/L33S/V38A/N42T, TZM-bl cells, 48 h, luciferase, means, triplicate, repeated three times. The procedure: as §3, §1
Experiment [10] concerns HIV-1 NL4-3 gp41 V38A/N42T pseudovirus. Particulars: Table 3; for Fold change in IC50: V38A/N42T relative to WT NL4-3; for IC50: V38A/N42T, TZM-bl cells, 48 h, luciferase, means, triplicate, repeated three times. The procedure:
as §3, §1

Where a SMILES comes first, the peptide text is derived from it. The star is where a group is joined. Palmitoyl = CCCCCCCCCCCCCCCC(=O)*

On to `CCCCCCCCCCCCCCCC(=O)NCCCC[C@H](NC(=O)[C@H](CC(C)C)NC(=O)[C@H](CC(C)C)NC(=O)[C@H](CCC(=O)O)NC(=O)[C@H](CCC(=O)O)NC(=O)[C@@H](NC(=O)[C@H](CCCCN)NC(=O)[C@H](CCCCN)NC(=O)[C@H](CCC(=O)O)NC(=O)[C@H](CC(C)C)NC(=O)[C@H](CCC(=O)O)NC(=O)[C@H](CCC(=O)O)NC(=O)[C@@H](NC(=O)[C@H](CCCCN)NC(=O)[C@H](CCCCN)NC(=O)[C@H](CCC(=O)O)NC(=O)[C@H](Cc1c[nH]c2ccccc12)NC(=O)[C@H](CCC(=O)O)NC(=O)[C@H](CCC(=O)O)NC(=O)[C@H](Cc1c[nH]c2ccccc12)NC(=O)[C@@H](NC(=O)[C@H](CCSC)NC(=O)[C@H](CCC(=O)O)NC(C)=O)[C@@H](C)O)C(C)C)[C@@H](C)CC)C(N)=O` [LP-19] (Ac-EMTWEEWEKKVEELEKKIEELLK(Palmitoyl)-NH2), for which the “Fold change in IC50” value in experiment [1] came to 1.00 fold; in experiment [2], 1.62 fold; in experiment [3], 1.00 fold; in experiment [4] it was 1.61 fold; in experiment [5], 1.25 fold; in experiment [6], 0.56 fold. Moreover, the “Fold change in IC50” value in [7] is 1.68 fold; in experiment [8], 3.04 fold; in experiment [9], 1.48 fold; in [10], 0.66 fold.
By IC50 is commonly meant the concentration needed to halve the response being measured. As for `CC[C@H](C)[C@H](NC(=O)[C@H](C)NC(=O)[C@H](CCCNC(=N)N)NC(=O)[C@H](CC(=O)O)NC(=O)[C@H](Cc1c[nH]c2ccccc12)NC(=O)[C@H](C)NC(=O)[C@H](CCC(=O)O)NC(=O)[C@H](Cc1c[nH]c2ccccc12)NC(=O)[C@@H](NC(=O)[C@@H](NC(C)=O)[C@@H](C)O)[C@@H](C)O)C(=O)N[C@@H](C)C(=O)N[C@@H](CCC(=O)O)C(=O)N[C@@H](Cc1ccc(O)cc1)C(=O)N[C@@H](C)C(=O)N[C@@H](C)C(=O)N[C@@H](CCCNC(=N)N)C(=O)N[C@H](C(=O)N[C@@H](CCC(=O)O)C(=O)N[C@@H](C)C(=O)N[C@@H](CC(C)C)C(=O)N[C@H](C(=O)N[C@@H](CCCNC(=N)N)C(=O)N[C@@H](C)C(=O)N[C@@H](C)C(=O)N[C@@H](CCC(N)=O)C(=O)N[C@@H](CCC(=O)O)C(=O)N[C@@H](CCC(N)=O)C(=O)N[C@@H](CCC(N)=O)C(=O)N[C@@H](CCC(=O)O)C(=O)N[C@@H](CCCCN)C(=O)N[C@@H](CC(N)=O)C(=O)N[C@@H](CCC(=O)O)C(=O)N[C@@H](C)C(=O)N[C@@H](C)C(=O)N[C@@H](CC(C)C)C(=O)N[C@@H](CCCNC(=N)N)C(=O)N[C@@H](CCC(=O)O)C(=O)N[C@@H](CC(C)C)C(N)=O)[C@@H](C)CC)[C@@H](C)CC` [T2635], the IC50 in [1] is 0.73 nM; in experiment [2], 0.97 nM; in experiment [3], 0.75 nM; in experiment [4] it was 1.43 nM; in [5], 1.51 nM; in experiment [6], 1.3 nM. Also, the IC50 stood at 1.94 nM in experiment [7], 5.44 nM in [8], 5.73 nM in experiment [9] and 0.56 nM in experiment [10]. The “Fold change in IC50” value in [1] amounted to 1.00 fold; in experiment [2], 1.33 fold; in experiment [3], 1.04 fold; in [4], 1.97 fold; in [5], 2.07 fold; in [6], 1.78 fold. Besides, the “Fold change in IC50” value in experiment [7] was 2.67 fold; in experiment [8], 7.49 fold; in experiment [9], 7.85 fold; in experiment [10] it was 0.77 fold.
With `CC[C@H](C)[C@H](NC(=O)[C@H](CCC(=O)O)NC(=O)[C@H](CCCNC(=N)N)NC(=O)[C@H](CCC(=O)O)NC(=O)[C@H](Cc1c[nH]c2ccccc12)NC(=O)[C@@H](NC(=O)[C@H](CCC(=O)O)NC(=O)[C@H](Cc1c[nH]c2ccccc12)NC(=O)[C@H](CO)NC(C)=O)[C@@H](C)O)C(=O)N[C@@H](CCC(=O)O)C(=O)N[C@@H](CC(N)=O)C(=O)N[C@@H](Cc1ccc(O)cc1)C(=O)N[C@H](C(=O)N[C@@H](CCCNC(=N)N)C(=O)N[C@@H](CCC(N)=O)C(=O)N[C@H](C(=O)N[C@@H](Cc1ccc(O)cc1)C(=O)N[C@@H](CCCNC(=N)N)C(=O)N[C@H](C(=O)N[C@@H](CC(C)C)C(=O)N[C@@H](CCC(=O)O)C(=O)N[C@@H](CCC(=O)O)C(=O)N[C@@H](CO)C(=O)N[C@@H](CCC(N)=O)C(=O)N[C@@H](CCC(=O)O)C(=O)N[C@@H](CCC(N)=O)C(=O)N[C@@H](CCC(N)=O)C(=O)N[C@@H](CC(=O)O)C(=O)N[C@@H](CCCNC(=N)N)C(=O)N[C@@H](CC(N)=O)C(=O)N[C@@H](CCC(=O)O)C(=O)N[C@@H](CCCNC(=N)N)C(=O)N[C@@H](CC(=O)O)C(=O)N[C@@H](CC(C)C)C(=O)N[C@@H](CC(C)C)C(=O)N[C@@H](CCC(=O)O)C(N)=O)[C@@H](C)CC)[C@@H](C)CC)[C@@H](C)O` [SFT] (Ac-SWETWEREIENYTRQIYRILEESQEQQDRNERDLLE-NH2), the IC50 in [1] was 1.56 nM; in [2] it was 11.2 nM; in experiment [3], 1.67 nM; in [4] it was 4.67 nM; in [5], 23 nM; in [6], 260 nM. Besides, the IC50 in [7] turned out to be 8.03 nM; in [8] it was 110 nM; in [9], 739 nM; in [10] it was 116 nM. Besides, the “Fold change in IC50” value is 1.00 fold in [1]; 7.21 fold in experiment [2]; 1.07 fold in experiment [3]; 3.00 fold in experiment [4]; 14.72 fold in [5]; 166.68 fold in experiment [6]. Moreover, the “Fold change in IC50” value is 5.15 fold in experiment [7], 70.71 fold in experiment [8], 473.54 fold in [9] and 74.48 fold in [10].

The values above are taken from PMC9223764, “In Vitro Selection and Characterization of HIV-1 Variants with Increased Resistance to LP-40, Enfuvirtide-Based Lipopeptide Inhibitor” (International Journal of Molecular Sciences, 2022).
